Reference: patent US20210378281A1, “INHIBITION OF SENSORY IRRITATION DURING CONSUMPTION OF NON-SMOKEABLE TOBACCO PRODUCTS” (priority 2010, published 2021)
Where “and” joins values, the source holds several entries; their conditions need not be identical. Identical values can stand only once. Entries after “also recorded” stand apart in the source; their conditions may differ.

What was measured:
nerve fibers = conditions: isolated mouse trachea model; cited from earlier work
[1] = system: tongues of human volunteers; test: pre-treatment with camphor on sensory irritation from nicotine, tongues of human volunteers; assay type: in vivo; conditions: camphor 25, 50 or 100 ppm, 20 microliters on strip for 30 seconds before 0.1-0.3% nicotine
Excerpt: FIGS. 1 and 2 show the results of a study on the effect of pre-treatment with camphor on sensory irritation from nicotine. Camphor was applied to tongues of human volunteers prior to application of a nicotine solution. Randomized sides of tongues were selected for application of 20 microliters of 0 ppm, 25 ppm, 50 ppm, or 100 ppm of camphor on a strip (thus, about […], respectively) for 30 seconds. Then, the subjects sipped, rinsed, then spit 0.1%, 0.2%, or 0.3% of a nicotine solution for a 5 second application. Participants were then asked which side of the tongue has the strongest burning sensation. Responses were collected both immediately (within 5 seconds) (FIG. 1) and after 30 seconds (FIG. 2). Controls received no camphor, and a baseline was established at zero camphor.

[2] = system: mouth of subjects using oral tobacco; test: snus pouches with camphor, perceived burning in the mouth, 2AFC design; assay type: in vivo, human
Method: A further study was conducted to determine if camphor affected perceived burning in the mouth of subjects using oral tobacco. Participants were given two snus pouch samples to use simultaneously, one in each side of the mouth. One sample was a control pouch with no camphor added and the other contained various concentrations of camphor ([…], based on tobacco weight, respectively). The hand-made test samples were constructed using unflavored tobacco (12% oven volatiles) to prevent any possible interference of the flavor system with the objective of the study. In preparing the pouches, the camphor was dissolved in 95% ethanol, with the control pouches receiving the ethanol only. Ten (10) microliters of one of the solutions was applied to each sample pouch (5 microliters per side). […] Responses were recorded on paper by the experimenter. […] Following each evaluation, participants were asked to give details regarding where the burning was felt and to provide any open-ended comments regarding their experience, which were recorded on paper by the experimenter. Participants repeated the sensory evaluation procedures an additional six (6) times, with a maximum of two (2) pairs being evaluated each day.

mouth of participants = test: threshold of irritation from camphor, oral sip and swish of camphor solution; assay type: in vivo, human; design: key to irritation felt at 200 ppm / irritation felt at 300 ppm / irritation felt at 400 ppm / irritation felt at 1000 ppm / irritation felt at 2000 ppm / irritation felt at 4000 ppm / irritation felt at 6000 ppm: Y: the participant felt irritation at the indicated concentration; N: no irritation was felt
Method: A further study was conducted to determine the threshold at which camphor itself would cause sensory irritation.
Each test used two milliliters (2 ml) of a camphor solution. The camphor was dissolved in ethanol and further diluted in water. Participants received sequentially increasing concentration of camphor. Nine participants received samples including food grade racemic camphor, with concentrations of 200, 300, 400, […] 1000, 2000, 4000, 6000 ppm (corresponding to about […] per sample, respectively).
Participants wore nose clips during evaluation. Each participant sipped the sample, swished it in the mouth for 10 seconds, then spat it out. Each participant then indicated whether irritation was perceived. Between evaluations of each sample, participants rinsed with water and waited for one minute.
The left-most column indicates the participant number of each individual participant.

TRPA1 receptors = TRPA1 receptors (Homo sapiens, UniProt O75762); conditions: cited from earlier work
TRPV1 receptors = conditions: increasing their responsiveness; J. Neurophysiol., 91: 1482-1491, 2004; cited from earlier work

Sequence of TRPA1 receptors (O75762 whole entry): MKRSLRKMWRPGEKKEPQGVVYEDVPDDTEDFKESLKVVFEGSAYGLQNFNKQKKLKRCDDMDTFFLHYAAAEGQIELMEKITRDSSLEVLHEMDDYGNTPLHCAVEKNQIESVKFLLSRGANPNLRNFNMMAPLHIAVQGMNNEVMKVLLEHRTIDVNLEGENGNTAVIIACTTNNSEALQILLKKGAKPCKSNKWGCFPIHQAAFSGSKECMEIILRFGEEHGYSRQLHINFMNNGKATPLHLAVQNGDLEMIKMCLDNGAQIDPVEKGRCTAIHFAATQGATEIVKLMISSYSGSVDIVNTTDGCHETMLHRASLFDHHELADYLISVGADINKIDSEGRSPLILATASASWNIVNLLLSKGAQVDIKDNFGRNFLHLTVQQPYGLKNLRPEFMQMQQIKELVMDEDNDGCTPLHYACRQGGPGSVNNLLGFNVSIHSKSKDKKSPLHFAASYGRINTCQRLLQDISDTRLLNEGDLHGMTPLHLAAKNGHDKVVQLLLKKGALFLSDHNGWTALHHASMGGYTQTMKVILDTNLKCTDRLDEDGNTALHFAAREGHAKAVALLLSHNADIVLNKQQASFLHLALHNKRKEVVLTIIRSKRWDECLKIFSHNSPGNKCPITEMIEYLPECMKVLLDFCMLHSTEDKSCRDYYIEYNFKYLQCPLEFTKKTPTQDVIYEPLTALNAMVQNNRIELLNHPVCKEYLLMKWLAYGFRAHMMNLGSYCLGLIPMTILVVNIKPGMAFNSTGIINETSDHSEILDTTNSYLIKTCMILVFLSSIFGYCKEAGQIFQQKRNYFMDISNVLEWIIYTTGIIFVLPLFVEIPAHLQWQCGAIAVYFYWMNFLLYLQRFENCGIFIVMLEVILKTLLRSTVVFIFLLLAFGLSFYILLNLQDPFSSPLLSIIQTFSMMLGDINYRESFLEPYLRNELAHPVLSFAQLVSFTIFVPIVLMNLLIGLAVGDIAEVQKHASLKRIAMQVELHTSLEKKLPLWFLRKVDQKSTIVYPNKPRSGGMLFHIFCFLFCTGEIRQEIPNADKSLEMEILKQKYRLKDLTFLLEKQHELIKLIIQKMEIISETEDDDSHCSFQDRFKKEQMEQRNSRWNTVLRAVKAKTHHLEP

| SMILES | inhibition of activation of nerve fibers induced by the nicotinic agonist nicotine (nerve fibers) | perceived burning from nicotine, 30 seconds after initial exposure ([1]; response after 30 seconds) | perceived burning from nicotine, immediately ([1]; response immediately (within 5 seconds)) | time at which the effect was strongest ([2]; 12 nanogram (50 ppm) camphor pouch, asked at 2, 5 and 10 minutes) [min] | reduction of oral burning from snus pouch ([2]; 12 nanogram (corresponding to 50 ppm) camphor per pouch versus control pouch) | irritation felt at 200 ppm (mouth of participants; 200 ppm camphor, 2 ml solution, swished 10 seconds, one line per participant) | irritation felt at 300 ppm (mouth of participants; 300 ppm camphor, 2 ml solution, swished 10 seconds, one line per participant) | irritation felt at 400 ppm (mouth of participants; 400 ppm camphor, 2 ml solution, swished 10 seconds, one line per participant) | irritation felt at 1000 ppm (mouth of participants; 1000 ppm camphor, 2 ml solution, swished 10 seconds, one line per participant) | irritation felt at 2000 ppm (mouth of participants; 2000 ppm camphor, 2 ml solution, swished 10 seconds, one line per participant) | irritation felt at 4000 ppm (mouth of participants; 4000 ppm camphor, 2 ml solution, swished 10 seconds, one line per participant) | irritation felt at 6000 ppm (mouth of participants; 6000 ppm camphor, 2 ml solution, swished 10 seconds, one line per participant) | concentration at which a few participants were sensitive (mouth of participants; a few participants, sensitive only at higher concentrations) | concentration at which most participants perceived tingling (mouth of participants; most participants) | mean threshold for producing irritation (mouth of participants; n=9) [ppm] | Notes (sensation described by participant) (mouth of participants; one line per participant, concentrations in ppm) | sensitization of TRPA1 receptors (TRPA1 receptors) | sensitization of TRPV1 receptors (TRPV1 receptors) |
| --- | --- | --- | --- | --- | --- | --- | --- | --- | --- | --- | --- | --- | --- | --- | --- | --- | --- | --- |
| CC12CCC(CC1=O)C2(C)C (racemic) [camphor] | effectively inhibit activation of nerve fibers | significantly reduced perceived burning from nicotine | significantly reduced perceived burning from nicotine | 10 | most effective in reducing oral burning | Y (3×) and N (6×) | Y (3×) and N (6×) | Y (4×) and N (4×) | N and Y (2×) | Y | Y | Y | 1000-2000 ppm | 200-300 ppm | 655 | Tingling at 300, tingling no burning; also recorded: No Burning, slight tingling on edges; also recorded: Some burning and stinging at 200, |  |  |
| CN1CCCC1c1cccnc1 (stereo not drawn) [nicotine] |  |  |  |  |  |  |  |  |  |  |  |  |  |  |  |  | as well as TRPA1 receptors | sensitize TRPV1 receptors |
